Data reported in publication PMC6669961, “Design and Optimization of Thioglycosyl–naphthalimides as Efficient Inhibitors Against Human O-GlcNAcase” (Frontiers in Chemistry, 2019).
Where two headings read alike, the source gives them in different places.

How the values were obtained:
hOGA = conditions: read-out: Ki against hOGA, cited from earlier work
HsHexB = conditions: read-out: Ki against HsHexB, cited from earlier work
human O-GlcNAcase (hOGA) = biological target: T1, human O-GlcNAcase (hOGA) (Homo sapiens, UniProt O60502); assay: Enzyme inhibitory activity test against hOGA (4-MU-GlcNAc substrate, end-point fluorescence; Dixon plots for Ki); assay type: biochemical; conditions: pH 6.5
T1 construct: made in house; host or cells: Escherichia coli BL21(DE3)
T1 sequence (O60502 1-916): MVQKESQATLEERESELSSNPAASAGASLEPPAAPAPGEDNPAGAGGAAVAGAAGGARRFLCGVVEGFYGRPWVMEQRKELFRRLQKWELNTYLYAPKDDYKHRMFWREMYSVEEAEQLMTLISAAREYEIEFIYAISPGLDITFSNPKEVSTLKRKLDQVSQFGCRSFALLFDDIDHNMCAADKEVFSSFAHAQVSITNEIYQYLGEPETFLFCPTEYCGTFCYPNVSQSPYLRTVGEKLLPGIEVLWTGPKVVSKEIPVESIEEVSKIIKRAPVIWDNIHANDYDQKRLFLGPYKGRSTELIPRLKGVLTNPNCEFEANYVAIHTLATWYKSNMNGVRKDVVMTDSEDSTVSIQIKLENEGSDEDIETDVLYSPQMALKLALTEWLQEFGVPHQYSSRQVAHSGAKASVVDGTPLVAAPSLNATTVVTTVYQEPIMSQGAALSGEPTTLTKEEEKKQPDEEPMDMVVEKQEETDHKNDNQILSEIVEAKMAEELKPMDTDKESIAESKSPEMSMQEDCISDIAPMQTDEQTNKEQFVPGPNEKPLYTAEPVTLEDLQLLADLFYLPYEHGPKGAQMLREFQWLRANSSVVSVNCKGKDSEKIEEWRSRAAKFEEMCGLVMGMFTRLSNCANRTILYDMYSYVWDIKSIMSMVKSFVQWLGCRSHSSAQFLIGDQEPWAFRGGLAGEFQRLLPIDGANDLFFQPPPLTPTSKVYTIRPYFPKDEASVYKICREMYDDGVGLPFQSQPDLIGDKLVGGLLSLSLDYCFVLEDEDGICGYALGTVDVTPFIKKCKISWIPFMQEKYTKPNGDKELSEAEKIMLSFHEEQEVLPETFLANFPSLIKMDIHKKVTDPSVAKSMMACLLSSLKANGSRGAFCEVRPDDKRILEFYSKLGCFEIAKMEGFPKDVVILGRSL
Description: (§1) Human O-GlcNAcase (hOGA) was expressed in Escherichia coli BL21(DE3) and purified according to previous methods (Kong et al., [2016]). Human β-N-acetylhexosaminidase B (HsHexB) was overexpressed in Pichia pastoris and then purified as described previously (Shen et al., [2018a]).
(§2) All target compounds were evaluated for their inhibitory activities against hOGA and HsHexB in end-point experiments. 4-Methylumbelliferyl N-acetyl-β-D-glucosaminide (4-MU-GlcNAc) was used as substrate. In a final assay volume of 100 μL, inhibitor and substrate (40 μM) were mixed with Britton-Robinson buffer (hOGA, pH 6.5; HsHexB, pH 4.5) and enzyme; then, the assay components were incubated at 30°C for 30 min. Subsequently, the enzymatic reaction was terminated by the addition of 100 μL 0.5 M Na2CO3 solution. The fluorescence of the liberated 4-methylumbelliferone (Mu) was quantified at an excitation of 366 nm and emission of 445 nm on a Varioskan Flash microplate reader (Thermo Fisher Scientific, USA). To determine the inhibition constant (Ki), Dixon plots were performed by changing the concentration of the 4-MU-GlcNAc (40, 20, and 10 μM).

[1] = biological target: T2, human β-N-acetylhexosaminidase B (HsHexB) (Homo sapiens, UniProt P07686); assay: Enzyme inhibitory activity test against HsHexB (4-MU-GlcNAc substrate, end-point fluorescence; Dixon plots for Ki); assay type: biochemical; conditions: pH 4.5
T2 construct: made in house; host or cells: Pichia pastoris
T2 sequence (P07686 122-556): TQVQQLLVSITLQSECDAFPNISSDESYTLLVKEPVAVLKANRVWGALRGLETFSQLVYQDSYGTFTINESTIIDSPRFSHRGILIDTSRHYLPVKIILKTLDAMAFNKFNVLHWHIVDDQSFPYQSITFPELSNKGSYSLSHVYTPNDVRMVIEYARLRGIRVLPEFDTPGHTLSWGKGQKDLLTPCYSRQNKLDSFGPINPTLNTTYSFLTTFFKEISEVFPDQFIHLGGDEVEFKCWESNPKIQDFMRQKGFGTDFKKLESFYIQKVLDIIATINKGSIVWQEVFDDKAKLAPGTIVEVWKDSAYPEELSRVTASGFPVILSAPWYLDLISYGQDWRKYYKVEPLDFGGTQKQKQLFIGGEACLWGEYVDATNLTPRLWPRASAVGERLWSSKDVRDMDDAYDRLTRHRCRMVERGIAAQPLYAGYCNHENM
Description: as §1, §2

HsHex = conditions: read-out: Ki against HsHex, cited from earlier work
[2] = lead compounds 15b (1) and 5c (2) of previous research, ref Chen et al., 2018, Shen et al., 2018a
[3] = Dixon plots, 4-MU-GlcNAc 40, 20, 10 μM
[4] = 13r (3) of previous research, ref Shen et al., 2018b
[5] = GlcNAcstatin C, ref Dorfmueller et al., 2009
[6] = Gluco-nagstatin, ref Terinek and Vasella, 2005

## CC(=O)OC[C@H]1O[C@@H](SCC(=O)NCCCN2C(=O)c3cccc4c(N5CCCCC5)ccc(c34)C2=O)[C@@](O)(NC(=O)c2ccc(F)cc2)[C@@H](OC(C)=O)[C@@H]1OC(C)=O [Compound 1]
hOGA; [2]
  Ki: 3.8 µM
HsHexB; [2]
  Ki: 30.4 µM

## CC(=O)N[C@@H]1[C@@H](O)[C@H](O)[C@@H](CO)O[C@H]1SCC(=O)NCCCN1C(=O)c2cccc3cccc(c23)C1=O [Compound 2, reference compound]
hOGA; [2]
  Ki: 3.46 µM
Human O-GlcNAcase (hOGA); 100 μM inhibitor, 40 μM 4-MU-GlcNAc, 30°C, 30 min, read-out: Inhibition rate at 100 μM (%) hOGA
  inhibition at 100 µM: 97.6 ± 0.9%
Human O-GlcNAcase (hOGA); [3]
  Ki: 3.46 ± 0.11 µM
[1]; 100 μM inhibitor, 40 μM 4-MU-GlcNAc, 30°C, 30 min, read-out: Inhibition rate at 100 μM (%) HsHexB
  inhibition at 100 µM: 45.5 ± 0.5%
[1]; [3]
  Ki: > 100 µM
HsHexB; [2]
  Ki: > 100 µM

## CC(=O)N[C@@H]1[C@@H](O)[C@H](O)[C@@H](CO)O[C@H]1SCCNCCCN1C(=O)c2cccc3c(N4CCCCC4)ccc(c23)C1=O [Compound 3]
hOGA; [4]
  Ki: 0.6 µM
HsHexB; [4]
  Ki: > 100 µM

## CC(C)C(=O)N[C@H]1c2nc(CCc3ccccc3)cn2[C@H](CO)[C@@H](O)[C@@H]1O [GlcNAcstatin C]
HsHex; [5]
  Ki: 0.55 µM
hOGA; [5]
  Ki: 0.0044 µM

## CC(=O)N[C@H]1c2nc(CC(=O)O)cn2[C@H](CO)[C@@H](O)[C@@H]1O [Gluco-nagstatin]
HsHex; [6]
  Ki: 0.01 µM
hOGA; [6]
  Ki: 0.42 µM

## CCNC1=N[C@@H]2[C@@H](O)[C@H](O)[C@@H](CO)O[C@@H]2S1 [Thiamet-G]
HsHex; Thiamet-G, ref Yuzwa et al., 2008
  Ki: 750 µM
